In ChEMBL document CHEMBL1150913, “Novel cytotoxic cembranoids from the soft coral Sinularia flexibilis” (1998):
Converted amounts (≈) assume the structure as drawn.

How the values were obtained:
Assay type in all cases: functional
HT-29 = experiment: Cytotoxicity against human HT-29 cells after 6 days by MTT assay; settings: HT-29, 144 h, read-out: ED50 (the source's name)
P388 = experiment: Cytotoxicity against mouse P388 cells after 3 days by MTT assay; settings: P388, 72 h, read-out: ED50 (the source's name)
KB = experiment: Cytotoxicity against human KB cells after 3 days by MTT assay; settings: 72 h, read-out: ED50 (the source's name)
A549 = experiment: Cytotoxicity against human A549 cells after 6 days by MTT assay; settings: A549, 144 h, read-out: ED50 (the source's name)

SMILES	EC50 (HT-29)	EC50 (P388)	EC50 (KB)	EC50 (A549)
C/C1=C\CC[C@@](C)(O)[C@H]2C[C@H](CC[C@](C)(O)[C@H](O)CC1)[C@@H](C)C(=O)O2 [DIHYDROSINUFLEXOLIDE]	32.4 µg/mL (≈ 91.4 µM)	3.86 µg/mL (≈ 10.9 µM)	> 50 µg/mL	16.8 µg/mL (≈ 47.4 µM)
C=C(C(=O)OC)[C@H]1CC[C@](C)(O)[C@H](O)CC/C(C)=C/CC[C@@](C)(O)[C@@H](O)C1 [SINUFLEXIBILIN]	0.22 µg/mL (≈ 0.572 µM)	0.27 µg/mL (≈ 0.702 µM)	1.73 µg/mL (≈ 4.5 µM)	0.72 µg/mL (≈ 1.87 µM)
C=C1C(=O)O[C@@H]2C[C@@H]1CC[C@](C)(O)[C@H](O)CC/C(C)=C/CC[C@@]2(C)O [SINUFLEXOLIDE]	0.39 µg/mL (≈ 1.11 µM)	0.16 µg/mL (≈ 0.454 µM)	0.46 µg/mL (≈ 1.31 µM)	0.68 µg/mL (≈ 1.93 µM)
